Laboratory results reported in patent publication US20200031778A1, “NOVEL 5-SUBSTITUTED IMIDAZOLYLMETHYL DERIVATIVES” (Bayer CropScience Aktiengesellschaft, priority 2016, published 2020).

Assays:
Uromyces appendiculatus [1] = experiment: Example E: in vivo preventive test on Uromyces appendiculatus (bean rust); conditions: 264 h, 500 ppm of active ingredient, bean plants, preventive spray, evaluated 11 days after inoculation, read-out: efficacy
Protocol: Example E: In Vivo Preventive Test on Uromyces Appendiculatus (Bean Rust)
(§1) The active ingredients were made soluble and homogenized in a mixture of Dimethyl sulfoxide/Acetone/Tween® 80 and then diluted in water to the desired concentration.
The young plants of bean were treated by spraying the active ingredient prepared as described above. Control plants were treated only with an aqueous solution of Acetone/Dimethyl sulfoxide/Tween® 80.
After 24 hours, the plants were contaminated by spraying the leaves with an aqueous suspension of Uromyces appendiculatus spores. The contaminated bean plants were incubated for 24 hours at 20° C. and at 100% relative humidity and then for 10 days at 20° C. and at 70-80% relative humidity.
(§2) The test was evaluated 11 days after the inoculation. 0% means an efficacy which corresponds to that of the control plants while an efficacy of 100% means that no disease was observed.

Sphaerotheca fuliginea [2] = experiment: Example D: in vivo preventive test on Sphaerotheca fuliginea (powdery mildew on cucurbits); conditions: Podosphaera fuliginea, 360 h, read-out: efficacy
Protocol: Example D: In Vivo Preventive Test on Sphaerotheca Fuliginea (Powdery Mildew on Cucurbits)
as §1
The young plants of gherkin were treated by spraying the active ingredient prepared as described above. Control plants were treated only with an aqueous solution of Acetone/Dimethyl sulfoxide/Tween® 80.
After 24 hours, the plants were contaminated by spraying the leaves with an aqueous suspension of Sphaerotheca fuliginea spores. The contaminated gherkin plants were incubated for 72 hours at 18° C. and at 100% relative humidity and then for 12 days at 20° C. and at 70-80% relative humidity.
The test was evaluated 15 days after the inoculation. 0% means an efficacy which corresponds to that of the control plants while an efficacy of 100% means that no disease was observed.

Puccinia recondita [3] = experiment: Example B: in vivo preventive test on Puccinia recondita (brown rust on wheat); conditions: 264 h, 500 ppm of active ingredient, wheat plants, preventive spray, evaluated 11 days after inoculation, read-out: efficacy
Protocol: Example B: In Vivo Preventive Test on Puccinia Recondita (Brown Rust on Wheat)
as §1
(§3) The young plants of wheat were treated by spraying the active ingredient prepared as described above. Control plants were treated only with an aqueous solution of Acetone/Dimethyl sulfoxide/Tween® 80.
After 24 hours, the plants were contaminated by spraying the leaves with an aqueous suspension of Puccinia recondita spores. The contaminated wheat plants were incubated for 24 hours at 20° C. and at 100% relative humidity and then for 10 days at 20° C. and at 70-80% relative humidity.
as §2

Septoria tritici [4] = experiment: Example C: in vivo preventive test on Septoria tritici (leaf spot on wheat); conditions: Zymoseptoria tritici, 576 h; 500 ppm of active ingredient; wheat plants, preventive spray; evaluated 24 days after inoculation; read-out: efficacy
Protocol: Example C: In Vivo Preventive Test on Septoria Tritici (Leaf Spot on Wheat)
as §1, §3
After 24 hours, the plants were contaminated by spraying the leaves with an aqueous suspension of Septoria tritici spores. The contaminated wheat plants were incubated for 72 hours at 18° C. and at 100% relative humidity and then for 21 days at 20° C. and at 90% relative humidity.
The test was evaluated 24 days after the inoculation. 0% means an efficacy which corresponds to that of the control plants while an efficacy of 100% means that no disease was observed.

[5] = Log P by HPLC on reversed phase columns (EEC directive 79/831 Annex V.A8; methods [a], [b], [c]); type: physicochemical
How it was run: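 Reversed-phase HPLC with LC-UV detection, 10→95% acetonitrile linear gradient; aqueous eluent 0.1% formic acid [a], 0.001 M ammonium acetate, neutral [b], or 0.1% phosphoric acid [c]. Calibrated against C3–C16 alkan-2-ones of known Log P by retention-time linear interpolation; multiple values within a method separated by "+".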

Puccinia recondita [6] = experiment: Example IX-A: in vivo preventive test on Puccinia recondita (brown rust on wheat); conditions: 264 h, compounds of formula IX, 500 ppm of active ingredient, wheat plants, preventive spray, evaluated 11 days after inoculation, read-out: efficacy
How it was run: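 Young wheat plants sprayed with compound in DMSO/acetone/Tween 80 diluted in water, inoculated 24 h later with spore suspension. Incubated 24 h at 20 °C, 100% RH, then 10 days at 20 °C, 70-80% RH. Efficacy scored 11 days post-inoculation, 0% equal to solvent-treated controls, 100% no disease.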

Sphaerotheca fuliginea [7] = experiment: Example IX-C: in vivo preventive test on Sphaerotheca fuliginea (powdery mildew on cucurbits); conditions: Podosphaera fuliginea, 360 h; compounds of formula IX; 500 ppm of active ingredient; gherkin plants, preventive spray; evaluated 15 days after inoculation; read-out: efficacy
How it was run: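 Young gherkin plants sprayed with compound in DMSO/acetone/Tween 80 diluted in water, then inoculated 24 h later with Sphaerotheca fuliginea spores. Kept 72 h at 18 °C/100% RH, then 12 days at 20 °C/70-80% RH; efficacy scored 15 days post-inoculation, 0% = control, 100% = no disease.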

Uromyces appendiculatus [8] = experiment: Example IX-D: in vivo preventive test on Uromyces appendiculatus (bean rust); conditions: 264 h, compounds of formula IX, 500 ppm of active ingredient, bean plants, preventive spray, evaluated 11 days after inoculation, read-out: efficacy
How it was run: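 Young bean plants sprayed with compound (DMSO/acetone/Tween 80 in water), then inoculated 24 h later with Uromyces appendiculatus spores. Kept 24 h at 20° C, 100% RH, then 10 days at 20° C, 70–80% RH; efficacy scored 11 days post-inoculation, 0% = untreated control, 100% = no disease.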

Septoria tritici [9] = experiment: Example IX-B: in vivo preventive test on Septoria tritici (leaf spot on wheat); conditions: Zymoseptoria tritici, 576 h; compounds of formula IX; 500 ppm of active ingredient; wheat plants, preventive spray; evaluated 24 days after inoculation; read-out: efficacy
How it was run: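 Wheat seedlings sprayed preventively with compound dissolved in DMSO/acetone/Tween 80 and diluted in water; solvent-only controls. Spore suspension of S. tritici sprayed 24 h later; 72 h at 18 °C/100% RH, then 21 days at 20 °C/90% RH. Efficacy scored 24 days post-inoculation, 0% = control, 100% = no disease.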

[10] = 500 ppm of active ingredient, gherkin plants, preventive spray, evaluated 15 days after inoculation
[11] = reversed phase HPLC column, HPLC on reversed phase columns, method [a]
[12] = reversed phase HPLC column, method [a]: LC-UV, acidic range, 0.1% formic acid in water and acetonitrile as eluent (linear gradient from 10% to 95% acetonitrile)

Compound | pest or weed control at 500 ppm (Uromyces appendiculatus [1]) [%] | pest or weed control at 500 ppm (Sphaerotheca fuliginea [2]; [10]) [%] | pest or weed control at 500 ppm (Puccinia recondita [3]) [%] | pest or weed control at 500 ppm (Septoria tritici [4]) [%] | chromatographic logP [5, 11] | pest or weed control at 500 ppm (Puccinia recondita [6]) [%] | pest or weed control at 500 ppm (Sphaerotheca fuliginea [7]) [%] | chromatographic logP [5, 12] | pest or weed control at 500 ppm (Uromyces appendiculatus [8]) [%] | pest or weed control at 500 ppm (Septoria tritici [9]) [%] | other results
N#Cc1cncn1CC(O)c1ccc(Oc2ccc(Br)cc2)cc1Cl (stereo not drawn) [I-40, 3-[2-[4-(4-bromophenoxy)-2-chloro-phenyl]-2-hydroxy-ethyl]imidazole-4-carbonitrile] | 90 to 100 | 90 to 100 | 90 to 100 | 80 to 89 | 3.31 |  |  |  |  |  | 
OC(Cn1cncc1F)c1cnc(Oc2ccc(Br)cc2)cc1C(F)(F)F (stereo not drawn) [I-97, 1-[6-(4-bromophenoxy)-4-(trifluoromethyl)-3-pyridyl]-2-(5-fluoroimidazol-1-yl)ethanol] | 90 to 100 | 90 to 100 | 70 to 79 | 90 to 100 | 2.25 |  |  |  |  |  | 
COC(Cn1cncc1F)c1cnc(Oc2ccc(Cl)cc2)cc1C(F)(F)F (stereo not drawn) [I-131, 2-(4-chlorophenoxy)-5-[2-(5-fluoroimidazol-1-yl)-1-methoxy-ethyl]-4-(trifluoromethyl)pyridine] |  | 90 to 100 | 90 to 100 | 90 to 100 | 2.82 |  |  |  |  |  | 
CC(=O)OC(Cn1cncc1F)c1cnc(Oc2ccc(Cl)cc2)cc1C(F)(F)F (stereo not drawn) [I-133, [1-[6-(4-chlorophenoxy)-4-(trifluoromethyl)-3-pyridyl]-2-(5-fluoroimidazol-1-yl)ethyl]acetate] | 90 to 100 | 90 to 100 | 90 to 100 | 90 to 100 |  |  |  |  |  |  | 
CC(O)(Cn1cncc1C#N)c1ccc(Oc2ccc(Br)cc2)cc1Cl (stereo not drawn) [I-195, 3-[2-[4-(4-bromophenoxy)-2-chloro-phenyl]-2-hydroxy-propyl]imidazole-4-carbonitrile] | 90 to 100 | 90 to 100 | 90 to 100 | 90 to 100 | 3.55 |  |  |  |  |  | 
CC(O)(Cn1cncc1C#N)c1ccc(Oc2ccc(Br)cc2)cc1C(F)(F)F (stereo not drawn) [I-208, 1-{2-[4-(4-bromophenoxy)-2-(trifluoromethyl)phenyl]-2-hydroxypropyl}-1H-imidazole-5-carbonitrile] | 90 to 100 | 90 to 100 | 90 to 100 | 70 to 79 | 3.62 |  |  |  |  |  | 
CC(O)(Cn1cncc1F)c1cnc(Oc2ccc(Br)cc2)cc1C(F)(F)F (stereo not drawn) [I-210, 2-[6-(4-bromophenoxy)-4-(trifluoromethyl)-3-pyridyl]-1-(5-fluoroimidazol-1-yl)propan-2-ol] | 90 to 100 | 90 to 100 | 70 to 79 | 90 to 100 | 2.37 |  |  |  |  |  | 
CCC(O)(Cn1cncc1C#N)c1ccc(F)cc1 (stereo not drawn) [I-245, 3-[2-(4-fluorophenyl)-2-hydroxy-butyl]imidazole-4-carbonitrile] |  | 90 to 100 |  | 90 to 100 | 1.57 |  |  |  |  |  | 
CCCCC(O)(Cn1cncc1C#N)c1ccc(Cl)cc1 (stereo not drawn) [I-256, 3-[2-(4-chlorophenyl)-2-hydroxy-hexyl]imidazole-4-carbonitrile] | 90 to 100 | 90 to 100 | 80 to 89 | 80 to 89 | 2.86 |  |  |  |  |  | 
C[Si](C)(C)C#Cc1ccc(C(O)(Cn2cncc2C#N)C2(F)CC2)c(Cl)c1 (stereo not drawn) [I-394, 3-[2-[2-chloro-4-(2-trimethylsilylethynyl)phenyl]-2-(1-fluorocyclopropyl)-2-hydroxy-ethyl]imidazole-4-carbonitrile] |  | 90 to 100 |  | 90 to 100 |  |  |  |  |  |  | chromatographic logP ([5]; HPLC on reversed phase columns, method [a]): 4.06
N#Cc1cncn1CC(O)(C#CC1CCCCC1)C1(Cl)CC1 (stereo not drawn) [I-542, 1-[2-(1-chlorocyclopropyl)-4-cyclohexyl-2-hydroxybut-3-yn-1-yl]-1H-imidazole-5-carbonitrile] |  |  |  |  |  |  |  |  |  |  | pest or weed control at 500 ppm (Sphaerotheca fuliginea [2]): 80 to 89%; chromatographic logP ([5]; HPLC on reversed phase column, method [a]): 2.96
N#Cc1cncn1CC(=O)c1cnc(Oc2ccc(Cl)cc2)cc1C(F)(F)F [IX-109] |  |  |  |  |  | 70 to 79 | 90 to 100 | 3.17 | 90 to 100 | 90 to 100 | 
O=C(Cn1cncc1F)c1cnc(Oc2ccc(C(F)(F)F)cc2)cc1Cl [IX-110] |  |  |  |  |  | 90 to 100 | 90 to 100 | 2.56 | 90 to 100 | 90 to 100 | 
O=C(Cn1cncc1F)c1cnc(Oc2ccc(C(F)(F)F)cc2)cc1Br [IX-111] |  |  |  |  |  | 80 to 89 | 90 to 100 | 2.64 | 90 to 100 | 90 to 100 | 
N#Cc1cncn1CC(=O)c1cnc(Oc2ccc(OC(F)(F)F)cc2)cc1C(F)(F)F [IX-112] |  |  |  |  |  | 80 to 89 | 90 to 100 | 3.64 | 90 to 100 | 80 to 89 | 
N#Cc1cncn1CC(=O)c1cnc(Oc2ccc(C(F)(F)F)cc2)cc1Cl [IX-114] |  |  |  |  |  | 90 to 100 | 80 to 89 | 3.29 | 90 to 100 | 90 to 100 | 
N#Cc1cncn1CC(=O)c1cnc(Oc2ccc(C(F)(F)F)cc2)cc1Br [IX-115] |  |  |  |  |  | 90 to 100 | 90 to 100 | 3.37 | 90 to 100 | 90 to 100 | 
O=C(Cn1cncc1F)c1ccc(Oc2ccc(C(F)F)cc2)nc1C(F)(F)F [IX-134] |  |  |  |  |  | 80 to 89 | 90 to 100 | 2.48 | 90 to 100 | 90 to 100 | 
